# Results reported in patent US20230277125A1, “BREATH-BASED THERAPEUTIC DRUG MONITORING METHOD” (UNIVERSITÄTS-KINDERSPITAL BEIDER BASEL, priority 2020, published 2023).
# Key:
# [1] = human, in vivo
# Source text: It will be further noted that according to the methods of the present invention it is possible to measure the level of metabolites that belong to different metabolic pathways. Therefore, by measuring the level of said metabolites and comparing them with each other, it is also possible to compare the activities of said different metabolic pathways. […] FIG. 3 presents the time dependence of the relative activity of two oxidation pathways of valproate, β-oxidation that leads to 3-heptanone, and ω1-oxidation that results in 2-propyl-4-pentanolactone. The activities of both oxidation pathways are presented herein as a ratio between the nAUC parameters for m/z peaks due to compounds belonging to each of the pathways, and presented in a logarithmic scale. Both increase of in 2-propyl-4-pentanolactone to 3-heptanone ratio, as well as decrease thereof can be observed over time, and observed ratios span more than 100-fold range. Herein, values of nAUC parameters for the m/z peaks due to both 3-heptanone and 2-propyl-4-pentanolactone (accordingly, peaks at m/z of 115.11176 and 143.10659 in FIG. 14) are predictors for the previously trained mathematical model of the present invention.
# FIG. 3 presents the time dependence of the relative activity of two oxidation pathways of valproate, β-oxidation that leads to 3-heptanone, and […] that results in 2-propyl-4-pentanolactone. […]
# [2] = Blood-based therapeutic drug monitoring of serum valproate (immunoassay total, GC-MS free); assay type: in vivo, human
# Source text: FIG. 2 presents an analysis pipeline that includes constructing a response vector matrix, splitting the dataset into training and test set, applying feature reduction analysis to […] in order to identify predictors, training mathematical model based on selected predictors, applying selected predictors and mathematical model to the test set to determine the concentration of valproate in a subject, which matches well the serum concentration determined using the blood analysis, as determined in an immunoassay (total valproate concentration) and by GC-MS (free valproate concentration).
# The range of pharmacotherapies is described in AED rows. The patients were receiving either a single drug or combinations of up to three drugs. The bottom three rows identify the clinical outcome as described by side effects (mild or severe), drug response (responder or non-responder), and EEG (normal or abnormal). The grey bars on the top show the concentrations (mg/L) of free and total serum VPA (level 0 was assigned to all the measurements of subjects' not taking VPA, missing bars in free VPA represents the unavailability of data). Dark (light) grey bars indicate that the measurements were outside (inside) the therapeutic range (i.e. 50-100 mg/L for total and 5-10 mg/L for free VPA). Thus, for example, patient 20 suffers from DEE. During the first visit (i.e. 20-1), the patient was receiving a combination of LTG, LEV, and VPA. Total serum VPA concentration was 104 mg/L (i.e. beyond the therapeutic range) and free serum VPA could not be measured. At this point in time, the patient had only mild side effects, but was not responding to the medication, and EEG was abnormal. On the second visit, the patient was unable to perform breath test. During the third visit (i.e. 20-3), LEV had been removed, total serum VPA concentration was 108 mg/L and free serum VPA concentration was 12.7 mg/L (both levels above the therapeutic range). Side effects were still mild, EEG was back to normal, but the patient was still not responding to the pharmacotherapy. AED=antiepileptic drugs, EEG=electroencephalography, VPA=valproic acid, LTG=lamotrigine, and LEV=levetiracetam.
# 59 subjects (32 males and 27 females) between the ages of 4 and 20 (see FIG. 12A for details), undergoing treatment with antiepileptic drugs (AEDs) with the necessity of therapeutic drug monitoring (TDM) were enrolled in the study Immediately after blood drawn for TDM, subjects performed prolonged exhalations directly into SESI-HRMS system, comprising SUPER-SESI ionization device (Fossil Ion Technology, Spain) coupled to a Q Exactive Plus HRMS (Thermo Fisher Scientific, Germany). During the course of study, wherever blood-based TDM were performed, subjects also provided exhalations, leading to multiple measurements from some subjects. In total 75 successful measurements (from 48 subjects) were performed. […] In order to determine the feasibility of TDM of an example drug valproate by using mass spectroscopy of samples of breath exhaled by subjects, the subjects were divided into two groups i.e. valproate users and non-valproate users. […] Moreover, a different relationship between total valproate serum concentration and valproate dose for subjects with mono and multi-therapy compared to that known in the literature (Duran, 1993) was observed (FIG. 12D).
# [3] = human subject; cited from earlier work
# [4] = patient 20, third visit (20-3), LEV removed
compound,measurement,setting,value
"CCCC(CCC)C(=O)O [VPA, Valproic acid]",span of observed 2-propyl-4-pentanolactone to 3-heptanone ratios,[1],more than 100 fold
same,"total valproate for a given dose, multi-therapy vs mono-therapy",[2]; FIG. 12D,lower than those of mono-therapy
same,relationship between participants' age and serum free valproate fraction,"[2]; ages 4 to 20, FIG. 12C",inversely proportional relationship
same,total serum VPA concentration,"[2]; patient 20, first visit (20-1), combination of LTG, LEV and VPA",104 mg/L
same,free serum VPA concentration,[2]; [4],12.7 mg/L
same,total serum VPA concentration,[2]; [4],108 mg/L
same,relationship between serum concentrations of free and total valproate,"[2]; study participants, FIG. 12B",non-linear relationship
same,fraction directly excreted in urine without chemical modification,[3],Less than three percent
same,"fraction modified with coenzyme A and shuttled to mitochondria (β-oxidation, 3-oxovalproate)",[3],12%
same,fraction oxidised at position 4 (4-hydroxyvalproate),[3],2.7%
same,fraction oxidised at position 5 (5-hydroxyvalproate),[3],2.3%
same,fraction undergoing direct glucuronidation,[3],80%
